In patent US20180200233A1, “COMPOSITIONS FOR PREVENTING CANCERS ASSOCIATED WITH HUMAN PAPILLOMA VIRUSES” (Loma Linda University, priority 2015, published 2018):
pEC50: −log10 of the molar value.

What was measured:
[1] = in vitro; assay type: cell-based, human; settings: human
Description: (§1) FIGS. 3A-E are graphs providing data regarding resistance of HPV^+ SiHa cells to TRAIL-, cisplatin- and […] apoptosis, in the presence and absence of small molecules as disclosed herein. (FIG. 3A) HPV^+ SiHa cells are resistant to TRAIL-induced apoptosis as compared to the human osteosarcoma cell line U2OS. Cells (2×10^4 cells per well) were seeded into a 96-well plate, allowed to incubate overnight, and then treated with indicated concentration of TRAIL in the presence of cycloheximide (5 μg/ml). The viability of cells was measured after overnight incubation using the MTT assay; the viability of cells untreated with TRAIL was set at 100% for each group. (FIG. 3B) The indicated concentrations of three small molecules were added to SiHa cells, and an MTT assay was preformed after overnight incubation. The viability of cells untreated with small molecules was set as 100%. (FIG. 3C) The indicated concentrations of myricetin or spinacine were added 4 h prior to TRAIL (100 ng/ml) in the presence of cycloheximide (5 μg/ml) and incubated at 37° C. overnight. The viability of cells untreated with small molecules was set at 100%. (FIG. 3D and FIG. 3E) SiHa cells (2×10^4 cells per well) were seeded into a 96-well plate and allowed to incubate overnight. 100 μM of myricetin and 50 μM of spinacine were added 4 h prior to either (FIG. 3D) doxorubicin or (FIG. 3E) cisplatin. Cell viability was measured after overnight incubation using the MTT assay, and the viability of cells untreated with either myricetin or spinacine was set at 100%. Experiments were performed in triplicate, and error bars indicate the standard deviation.
(§2) The molecules were then tested to determine whether those that block E6/caspase 8 binding in vitro could also act in the context of a cell. SiHa cells are an HPV^+ cell line, derived from a cervical carcinoma, which serves as a commonly used model for HPV-associated malignancies. To determine whether HPV^+ SiHa cells are resistant to TRAIL-induced apoptosis, SiHa cells were treated with TRAIL and cell viability was assessed. TRAIL-sensitive, HPV^− U2OS cells served as a positive control. […] Myricetin and/or spinacine were tested to determine if they could sensitize these HPV^+ cells to TRAIL-induced apoptosis. […] Table 2 lists and compares the concentrations of the three tested compounds required to induce death in 50% of SiHa cells in the presence or absence of TRAIL.
The extracellular domain of human TRAIL was cloned into a pTriEx expression plasmid containing N-terminal Hisx6 tag. His-TRAIL was expressed in the E. coli BL-21 pLys strain and purified as previously described. Doxorubicin and cisplatin were purchased from Sigma. His-TRAIL, doxorubicin, and cisplatin were diluted in PBS to the desired concentration before using. To measure cell survival following treatment with TRAIL, cisplatin and doxorubicin, SiHa (2×10^4/well), C33A (1×10^4/well), and HNSCC cells (2×10^4/well) were seeded into 96-well plates and allowed to adhere overnight. Small molecules at the desired concentration were added and incubated at 37° C. for 4 h. As indicated, TRAIL, cisplatin or doxorubicin was then added. […] All experiments were repeated at least three times (three biological replicates, carried out on different days), with each experimental group measured in triplicate within each of these individual experiments. […]

[2] = system: SiHa cells; experiment: MTT cell viability, SiHa cells with doxorubicin or cisplatin; assay type: cell-based, human; settings: 100 μM myricetin, 50 μM spinacine added 4 h prior; compared to negative control
Description: as §1, with “(FIG. 3C) The indicated concentrations of myricetin or spinacine were added 4 h prior to TRAIL (100 ng/ml) in the presence of cycloheximide (5 μg/ml) and incubated at 37° C. overnight. The viability of cells untreated with small molecules was set at 100%. (FIG. 3D and FIG. 3E) SiHa cells (2×10^4 cells per well) were seeded into a 96-well plate and allowed to incubate overnight. 100 μM of myricetin and 50 μM of spinacine were added 4 h prior to either (FIG. 3D) doxorubicin or (FIG. 3E) cisplatin.” left out, “Experiments were performed in triplicate, and error bars indicate the standard deviation.” left out
(§3) The extracellular domain of human TRAIL was cloned into a pTriEx expression plasmid containing N-terminal Hisx6 tag. […] All experiments were repeated at least three times (three biological replicates, carried out on different days), with each experimental group measured in triplicate within each of these individual experiments. […]

[3] = system: SiHa cells; experiment: MTT cell viability, SiHa cells, TRAIL-induced apoptosis; assay type: cell-based, human; settings: for increase in cell death in the presence than in the absence of TRAIL: from the EC50 values of Table 2; for concentration required to inhibit binding and to sensitize cells: cell sensitization experiments
Description: as §1
FIGS. 5A-B are graphs showing myricetin and spinacine (5) re-sensitized HPV^+, but not HPV^−, cells to treatment with TRAIL. SiHa (2×10^4 cells per well) and C33A cells (1×10^4 cells per well) were seeded into a 96-well plate and allowed to incubate overnight, then cells were pre-treated in the presence or absence of myricetin (100 μM) (FIG. 5A) or spinacine (50 μM) (FIG. 5B) for 4 h. The indicated concentration of TRAIL, along with cycloheximide (5 μg/ml) was added and cells were allowed to incubate overnight. Cell viability was measured by MTT assay, and the viability of cells untreated with TRAIL was set at 100%. Experiments were performed in triplicate, and error bars indicate the standard deviation.
as §2
The extracellular domain of human TRAIL was cloned into a pTriEx expression plasmid containing N-terminal Hisx6 tag. His-TRAIL was expressed in the E. coli BL-21 pLys strain and purified as previously described. Doxorubicin and cisplatin were purchased from Sigma. His-TRAIL, doxorubicin, and cisplatin were diluted in PBS to the desired concentration before using. To measure cell survival following treatment with TRAIL, cisplatin and doxorubicin, SiHa (2×10^4/well), C33A (1×10^4/well), and HNSCC cells (2×10^4/well) were seeded into 96-well plates and allowed to adhere overnight. Small molecules at the desired concentration were added and incubated at 37° C. for 4 h. As indicated, TRAIL, cisplatin or doxorubicin was then added. […]

[4] = system: SCC 84 (#84) cells; experiment: MTT cell viability, HPV- HNSCC cell line #84 with doxorubicin; assay type: cell-based; settings: 2 μM doxorubicin; small molecules 0-12.5 μM
Description: FIGS. 8A-B includes graphs showing myricetin and spinacine (5) re-sensitized HPV^+, but not HPV^−, HNSCC cell lines to treatment with doxorubicin. One HPV^− (FIG. 8A; #84) and one HPV^+ (FIG. 8B; #90) head and neck cancer cell line (2×10^4 cells per well) were seeded into 96-well plates and allowed to incubate overnight, then cells were pre-treated with myricetin or spinacine (0-12.5 μM) for 4 h. 2 μM of doxorubicin was added and cells were allowed to incubate overnight. Cell viability was measured by MTT assay, and the viability of cells untreated with small molecules was set at 100%. Experiments were performed in triplicate, and error bars indicate the standard deviation.
The results described above indicate that myricetin and spinacine sensitize HPV^+ HNSCC cells to TRAIL-induced apoptosis. To determine whether this sensitization also occurs in the context of chemotherapeutic agents, several HNSCC cell lines were tested for their responses to combination treatments.
as §3, with “tag. His-TRAIL was expressed in the E. coli BL-21 pLys strain and purified as previously described.” for “tag.”

SMILES | pEC50 [1] | sensitivity of SiHa cells to doxorubicin and cisplatin (in words) [2] | sensitivity of SiHa cells to TRAIL after pre-treatment (in words) ([3]; 100 μM myricetin or 50 μM spinacine for 4 h, TRAIL up through 100 ng/ml) | increase in cell death in the presence than in the absence of TRAIL ([3]; SiHa cells) [fold] | concentration required to inhibit binding and to sensitize cells [3] [µM] | response of HPV- HNSCC cell line #84 to doxorubicin (in words) [4] | EC50 for TRAIL-induced apoptosis ([3]; SiHa cells, compound added 4 h prior to TRAIL 100 ng/ml + cycloheximide 5 μg/ml, overnight, MTT)
O=c1c(O)c(-c2cc(O)c(O)c(O)c2)oc2cc(O)cc(O)c12 [Myricetin, reference compound] | 3.27 | increased the sensitivity | sensitivity increased dramatically | 3.5 | 100 | resistant | –
OCn1cnc2ccccc21 [Compound 3, 1H-benzimidazole-1-methanol] | 3.55 | – | – | – | – | – | No sensitization
O=C(O)C1Cc2[nH]cnc2CN1 (stereo not shown) [Compound 5, 4,5,6,7-Tetrahydro-1H-imidazo(4,5-c)pyridine-6-carboxylic acid] | 3.57 | increased the sensitivity | – | 8.6 | 50 | resistant | –
